Entries after “also recorded” stand apart in the source; their conditions may differ.

The subject of data set [1] is DNA of DLD-1-1 cells. Kind of data set: Pulsed-field gel electrophoresis of DNA damage (double strand breaks). Type of data set: cell-based. The conditions noted are these: 0.75 μM bleomycin or 0.2 μM MMS, 24 hours. How it is done:
The cells are released by trypsinization and melted in the agarose inserts. The agarose inserts are incubated in 0.5M EDTA—1% N-laurosylsarcosine—proteinase K (1 mg/ml) at 50° C. for 48 hrs and then washed four times in TE buffer prior to loading on a 1% agarose gel (Pulse-Field Certified Agarose, Bio-Rad, Hercules, Calif.) and DNA separation by pulsed-field gel electrophoresis is carried out for 24 hrs (Bio-Rad, 120° field angle, 60 to 240s switch time, 4 V/cm). The gel is subsequently stained with ethidium bromide and analyzed with AlphaImager™ 2200. (Alpha Innotech Corp., San Leandro, Calif.).
The effects of MMS and bleomycin on oligonucleotide-directed gene alteration are determined as follows. DLD-1-1 cells are seeded in 100 mm dishes at 2×10^6 cells per plate and immediately treated with 0.2 μM MMS or 0.75 μM bleomycin. The cells are then grown for 24 hours, until approximately 50% confluent, and washed twice with PBS. A portion of each population of cells is removed for DNA analysis by pulsed-field electrophoresis, as described in Example 1. The correcting oligo EGFP/72NT (10 μg) is then added and the cells are electroporated as in Example 3. Cells are then analyzed to determine the percentage of cells with corrected eGFP genes as described in Example 3.

Data set [2] deals with mutant eGFP gene in DLD-1-1 cells. Kind of data set: eGFP gene correction (oligonucleotide-directed sequence alteration) in DLD-1-1 cells, FACS readout. The conditions noted are these: for correction efficiency: cells synchronized by double thymidine block, then 10 mM thymidine 24 hours. Type of data set: cell-based. The protocol: Cell line and culture conditions: DLD-1 cells are obtained from ATCC (American Type Cell Culture, Manassas, Va.). DLD-1 integrated clone 1 (DLD-1-1) is obtained by integration of the vector pEGFP-N3 containing a single point mutation (TAG) in the eGFP gene, as described in copending U.S. patent application Ser. No. 10/986,418, filed Nov. 10, 2004 (“Mammalian Cell Lines for Detecting, Monitoring, and Optimizing Oligonucleotide-Mediated Chromosomal Sequence Alteration”). Cells are grown in RPMI 1640 medium with 2 mM glutamine, 4.5 g/L glucose, 10 mM HEPES, 1 mM sodium pyruvate and supplemented with 10% FBS. Cells are maintained at 5% CO2, 37° C. and under selection in 200 μg/ml G418 (Gibco, Invitrogen Co., Carlsbad, Calif.).
eGFP gene correction: Cells grown in complete medium supplemented with 10% FBS are trypsinized and harvested by centrifugation. The cell pellet is resuspended in serum-free medium at a density of 1×10^6 cells/100 μl and transferred to a 4 mm gap cuvette (Fisher Scientific, Pittsburgh, Pa.). The oligonucleotide is then added at a concentration of 4 μM and the cells are electroporated (LV, 250V, 13 msec, 2 pulses, 1 second interval) using a BTX ECM830 apparatus (BTX, Holliston, Mass.). The cells are then transferred to a 60 mm dish containing fresh medium supplemented with 10% FBS and incubated for 48 hrs at 37° C. before harvesting for FACS analysis.
The percentage of converted cells in a whole population is then calculated by CellQuest™ (Becton Dickinson) and GFP/PI programs. The correction efficiency is determined by dividing the number of eGFP positive cells by the number of cells analyzed in each experiment (usually 50,000 cells). Each clone is tested three times to determine the standard deviation of the correction efficiency, with standard deviation calculated using Microsoft Excel.
The experimental strategy involves the introduction of oligonucleotides into DLD-1-clone 1 cells by electroporation followed by phenotypic readout of the corrected eGFP gene, 48 hours later. The correcting oligonucleotide (EGFP3S/72NT) is 72 bases in length (72-mer), complementary to the non-transcribed strand of the mutant eGFP gene but designed to create a single mismatch in the third base of codon 67 (see FIG. 1A). It directs conversion of a TAG→TAC codon which enables phenotypic expression of eGFP, which can be detected by FACS. FIG. 1B outlines the sequence of the target gene, the 72-mer and a nonspecific 74-mer used as a control.
Oligonucleotide-Directed Sequence Alteration: The resulting synchronized populations of cells, and asynchronous controls, are grown in complete medium supplemented with 10% FBS and trypsinzed and harvested by centrifugation at 1500 rpm for 5 minutes. The cell pellet is resuspended in fresh serum-free medium at a density of 2×10^6 cells/100 μl. The entire cell suspension is mixed with 20 μg of EGFP/72NT and transferred into a 4 mm gap cuvette (Fisher Scientific, Pittsburgh, Pa., USA) followed by electroporation with two 250V pulses, each 13 ms in duration, with one second between pulses, unipolar.
Cells are incubated at room temperature for 30 min. […] Frequency of converted cells are calculated by CellQuest™ and GFP/PI programs.
Double Thymidine Block: Cells are synchronized in G1 or at the G1/S border by a double thymidine block. Twenty-four hours prior to the addition of any agent (HU, etc.), cells are plated at a density of 0.5×10^6 cells per 100 mm dish, followed by incubation in 2 mM thymidine (Sigma) for 16 hrs, washed and released in fresh medium for 10 hrs, then incubated in 2 mM thymidine for an additional 15 hrs.
FACS is then used to analyze 50,000 cells from each population to determine the percentage of cells expressing functional eGFP, as described in Example 1.

Data set [3] relates to DLD-1-1 cells. Kind of data set: Cell cycle analysis (DNA content by FACS), cells in S phase. It is filed as cell-based. How it is done: (§1) For cell cycle analysis, 1×10^6 cells are plated 24 hrs before the treatment with drugs and after 24 hrs of treatment, cells are trypsinized, resuspended in 300 μl cold PBS and fixed by adding 700 μl cold ethanol. Cells are then resuspended in 1 ml of PBS containing 500 µg/ml RNaseA and […] propidium iodide and analyzed for DNA content.
The effect of cell cycle on the efficiency of ODSA is assessed by synchronizing a population of DLD-1-1 cells with mimosine, which arrests cells in early S phase, and serum starvation. Cells are seeded at a density of 0.8×10^6 per 100 mm dish, attached for 20 hours and then cultured in RMPI-1640 medium containing 0.2% fetal bovine serum (FBS). These cells are grown for 48 hours followed by treatment with 0.1 mM mimosine (Sigma, St. Louis, Mo., USA) for 20 hours. Cell are washed twice with PBS and released at various times into fresh medium complemented with 10% FBS before electroporation. Cells are rinsed once with PBS, trypsinized and harvested by centrifugation and resuspended in PBS containing 10 μg/ml propidium iodide, 0.03% Triton-100 and 1 mg/ml RNase. Cells are incubated at room temperature for 1 hour before the measurement of DNA content by FACSCalibur™ flow cytometer. The percentage of cells at various stages of the cell cycle is determined by ModFit L™ software (Verity Software House, Inc., Topsham, Me., USA).
(§2) The resulting cells are then either analyzed by FACS, or the percentage of cells in S phase is determined by BrdU incorporation. FIG. 8 presents the results of both sets of experiments.
For orientation: Flow cytometry measures light scatter and fluorescence of single cells or particles in a stream.

The test system of data set [4] is DLD-1-1 cells. Kind of data set: BrdU incorporation (actively replicating forks). Type of data set: cell-based. The conditions noted are these: 24 hour treatment; 500 μM ddC, ddI or AraC (FIG. 17B). How it is done: as §1, §2
As stated above, the lack of stimulation observed in cells treated with AraC could be explained by the reduced number of cells passing through S phase or the absence of actively replicating forks. If true, we might predict that a rise in the gene repair frequency would appear if the cells are released from the AraC block and replication forks are allowed to restart prior to the electroporation of the oligonucleotide. We test this prediction by treating the cells with AraC for 24 hrs and then releasing them by washing out the drug at specific times. We measure the level of BrdU incorporation at the time of electroporation and evaluate the frequency of correction 48 hrs later.
On the technique in general: Uptake of a labelled nucleoside into DNA is a usual measure of proliferation.

The subject of data set [5] is α-galactosidase A (GLA) activity in Fabry's cell line DMN-1. Kind of data set: GLA activity in Fabry's cells after ODSA. The conditions noted are these: cells synchronized by DTB, 500 μM ddC. Type of data set: cell-based, human. An excerpt:
(§3) Cell line DMN-1, a human fibroblast cell line derived from a human patient with Fabry's disease, is obtained from the National Institutes of Health (NIH). These cells are used to measure the efficiency of correction of a mutant allele of α-galactosidase A (GLA) using methods of the present invention. The specific disease-causing mutation in the Fabry's cell line used herein is A143P, caused by a G→C mutation in the gene. See Branton et al., Medicine (Baltimore) (2002) 81(2): 122-38.
(§4) All four oligonucleotides are used to effect ODSA substantially as described in Example 1, with the exception that cells are transfected with oligonucleotides, rather than electroporated. Oligos are added at 5 μg, 10 μg or 30 μg per reaction. After ODSA is performed, cells are cultured and assayed for GLA activity according to the method of Brady, as described in Medin et al., Proc. Natl. Acad. Sci. (USA) (1996) 93:7917-22, the disclosure of which is incorporated herein by reference in its entirety. The GLA activity is used as a measure of gene correction by comparing the activities in treated versus untreated cultures. The correction efficiency is subsequently confirmed by sequencing of the locus of mutation in a number of treated cells.
[…] Unlike the experiments involving correction of eGFP in DLD-1-1 cells described in Example 1, however, certain of the agents (VPA, caffeine, TSA) in the experiments in this example are not added before transfection, but are instead added only after transfection, during the recovery period.
(§5) The means of introducing oligonucleotide into the target cells also differs from previous examples, with transfection in the presence of the transfection enhancing agent FuGENE™ 6 (FG) (Roche Diagnostics Corp., Indianapolis, Ind., USA) being used rather than electroporation. Each transfection reaction includes 100 μl of target cells and 12 μl of FG unless otherwise indicated, despite the fact that FG is not explicitly listed for each datapoint in the relevant figures. Otherwise the procedures used in the DLD-1-1 experiments and the Fabry's experiments are similar.
The results of a further series of experiments are shown at FIG. 15D, where the data are presented as GLA activity as nanomolar (nM) concentration of the product of the GLA assay generated per hour per unit protein concentration (as are the data in FIGS. D and E).

Data set [6] has as its system DLD-1-1 cells. Briefly: Cell viability / cell death by propidium iodide FACS.
Protocol: Flow cytometry analysis: eGFP fluorescence of corrected cells is measured by a Becton Dickinson FACSCalibur™ flow cytometer (Becton Dickinson, Rutherford, N.J.). Cells are harvested 48 hrs after electroporation and resuspended in FACS buffer (0.5% BSA, 2 mM EDTA, 2 μg/ml propidium iodide in PBS). More specifically, the program is set for the appropriate cell size (forward scatter versus side scatter) and the population of single-cells is gated for analysis. Using the negative control (minus PI, minus GFP) the background fluorescence was set by positioning the cells in the 10^1 decade of the dot plot by adjusting the voltage for FL1 (GFP) and FL2 (PI). The composition is then set for multi-fluorochrome experiments using a GFP control sample containing no PI and increasing the compensation to bring the signal toward the FL1 parameter. Finally, the last control, PI and no GFP is used to increase the compensation to bring the signal toward the FL2 parameter. Samples of 50,000 cells each are analyzed and those cells being GFP positive and PI negative are scored as corrected cells.
For cells that were not previously treated with caffeine, caffeine is added to the media to a final concentration of 4 mM in the 60 mM dish immediately following electroporation (the “recovery phase”). For cells that were pre-treated with caffeine, there is no addition of caffeine during the recovery phase. After 24 hrs of recovery, the media is changed and caffeine (4 mM final concentration) is added back to the culture. After 48 hrs of recovery, the samples are read by FACS: eGFP fluorescence reflects gene alteration (correction), and propidium iodide (PI) staining reflects cellular viability.
In data set [7] the test system is mutant allele (A143P) of α-galactosidase A (GLA) in Fabry's cell line DMN-1. Kind of data set: Correction efficiency of mutant GLA allele in Fabry's cells. Type of data set: cell-based, human. The conditions noted are these: VP16 1-50 μM; thymidine 2-50 mM; with or without correcting oligonucleotide.
Excerpt: as §3, §4
As in the previous examples, target cells are treated with HU, VP16 or CPT prior to transfection with the correcting oligonucleotide. Unlike the experiments involving correction of eGFP in DLD-1-1 cells described in Example 1, however, certain of the agents (VPA, caffeine, TSA) in the experiments in this example are not added before transfection, but are instead added only after transfection, during the recovery period.
as §5
The same experiment as described with respect to FIG. 15A is repeated in the presence of various agents and treatments to evaluate whether embodiments of the present invention can increase gene alteration (in this example, correction) efficiency. […] Bars represent the correction efficiencies observed in the various experiments. Unless otherwise indicated, all experiments include 10 μg of 49T/gg in addition to any other agent used to treat the cells.

Data set [8] deals with mutant eGFP gene in DLD-1-1 cells. Kind of data set: eGFP gene correction (oligonucleotide-directed sequence alteration) in DLD-1-1 cells, FACS readout. It is filed as cell-based. The conditions noted are these: 0.2 μM MMS 24 hours before electroporation, 10 μg oligo.

As to bleomycin, in data set [1], the DNA damage entry is “effect DNA damage”.
For `Nc1ccn([C@H]2CC[C@@H](CO)O2)c(=O)n1` [ddC, 2′3′-dideoxycytidine], in data set [2] (cells treated with ddC alone (FIG. 20)), the correction levels was 2.9%. Besides, the “effect on correction efficiency (increase)” value in data set [2] (ddC 24 hrs before electroporation, 500-750 μM) is “more than two-fold; also recorded: approximately two- to three-fold; also recorded: dose-dependent increase”. The “cells in S phase” value in data set [3] (24 hour treatment, 500 μM ddC, ddI or AraC (FIG. 17A)) was 70%. Further, the “BrdU uptake (cells actively incorporating DNA bases)” value in data set [4] was determined as 71.8%. Further, in data set [5], the “increase of GLA activity compared with untreated cells” value is on record as “approximately two-fold; also recorded: doubles DLA activity”. In data set [6] (ddC levels higher than 750 μM (data not shown)), the toxicity entry is given as “cellular toxicity”.
On to `Cc1cn([C@H]2C[C@H](O)[C@@H](CO)O2)c(=O)[nH]c1=O` [thymidine], for which the “correction efficiency in synchronized cells relative to asynchronous cells” value in data set [2] (1 mM HU or 10 mM thymidine, DTB synchronized vs asynchronous) is reported as “over seven times”. Also, in data set [2] (2 mM thymidine 16 hrs, release 10 hrs, 2 mM thymidine 15 hrs, no other agent), the “effect of synchronization by double thymidine block on correction efficiency” value is given as “increases correction efficiency”. The “effect on correction efficiency in asynchronous cells” value in data set [2] (10 mM thymidine 24 hours) was “does not enhance correction efficiency”. Moreover, the correction efficiency is listed as 7.5% in data set [2] and “over 7%” in data set [2] (listed as Thymidine). In addition, the “proportion of cells in S phase” value in data set [3] (after double thymidine block) is on record as 1.5%. Besides, in data set [7], the “effect on correction efficiency” value is “little effect on correction efficiency”.
On to `COS(C)(=O)=O` [MMS, methyl methanesulfonate], for which the DNA damage entry in data set [1] is “effect DNA damage”. In addition, the “effect on correction efficiency” value in data set [8] was “more than doubles the correction efficiency; also recorded: doubles correction efficiency”. Besides, the “effect on cell death” value in data set [6] (0.2 μM MMS) was “Cell death is not increased”.

The values above are taken from patent US20070072815A1, “Methods and kits to increase the efficiency of oligonucleotide-directed nucleic acid sequence alteration” (priority 2004, published 2007).
